US20210260090A1, “USE OF SGLT-2 INHIBITORS FOR THE PREVENTION AND/OR TREAT-MENT OF CARDIAC DISEASES IN FELINES” (Boehringer Ingelheim Vetmedica GmbH, priority 2020, published 2021)

Key:
[1] = system: cats with hypertrophic cardiomyopathy (HCM) and recent heart failure; experiment: Exploratory clinical field study of velagliflozin in cats (Example 2, case 101); format: in vivo; conditions: for NT-proBNP: cardiac biomarker, screening (D −7) 177; for NT-proBNP / Grade of murmur / Resting respiratory rate / Heart rate / Point of maximum intensity / Presence of arrythmia / Presence of gallop sound / Timing of murmur / Presence of murmur / LA/Ao (left atrium to aorta ratio) / LAD max (mm) (Left atrium measured as right parasternal long-axis): cat 101, 1 mg/kg orally once per day; for BPM (mmHG): cat 101, 1 mg/kg bodyweight orally once per day, screening (D −7) 128; for Grade of murmur: screening (D −7) 4; for Resting respiratory rate: screening (D −7) 28; for Heart rate: screening (D −7) 140; for Point of maximum intensity: screening (D −7) left apical; for Presence of arrythmia / Presence of gallop sound: screening (D −7) no; for Timing of murmur: screening (D −7) systolic; for Presence of murmur: screening (D −7) yes; for LA/Ao (left atrium to aorta ratio) / LAD max (mm) (Left atrium measured as right parasternal long-axis): echocardiography; for LA/Ao (left atrium to aorta ratio): screening (D −7) 1.63; for LAD max (mm) (Left atrium measured as right parasternal long-axis): screening (D −7) 16.3
Description: In an exploratory clinical field study (prospective, baseline controlled, open label and multi-site) under real world conditions, four cats were screened for eligibility for compassionate use of velagliflozin to treat cardiomyopathies and heart failure in cats. […] Due to non-compliance to treatment regime of one pet owner only one cat remained in the study over the complete planned time period of 90 days. Clinical symptoms (evaluated in a physical examination according to Good Veterinary Practice), echocardiographic parameters (always done by the same person at each visit and according to the ACVIM consensus statement guidelines for the classification, diagnosis, and management of cardiomyopathies in cats), blood parameters (evaluated by IDEXX Bioresearch Laboratories, Germany), number of events (re-occurrence of heart failure, cardiac related death or euthanasia) and time to event in days were documented at each visit on the respective Case Report Form.
Case 101 was a 10 years old, female spayed Maine Coon cat, diagnosed with hypertrophic cardiomyopathy (HCM) and previous congestive heart failure.
LA (Left atrium dimension measured as right parasternal short-axis); Ao (Aortic root diameter); LA/Ao, left atrium to aorta ratio; IVSd (interventricular septal end diastolic dimension, i.e. the thickness of the interventricular septum); LAD (Left atrium measured as right parasternal long-axis)

[2] = system: cat patients with every possible phenotype of cardiomyopathy (HCM, RCM, UCM, DCM and ARVC); experiment: Clinical field study in client-owned cat patients with cardiomyopathy (Example 1); format: in vivo; conditions: 1 mg/kg bodyweight orally once daily
Procedure: Client-owned cat patients (older than 1 year) with every possible phenotype of cardiomyopathy (HCM, RCM, UCM, DCM and ARVC) with or without clinical symptoms (e.g. congestive heart failure) are treated orally and once daily with a velagliflozin dosage of 1 mg/kg bodyweight.
During the study period the body weight, body condition score, blood pressure and the cardiovascular system (including heart rates, rhythm, presence of gallop sound or murmur and intensity) are examined on a regular basis during the visits at the site by the investigator. Additionally, thoracic radiographs (in the right lateral and dorso ventral view), echocardiography (including LV septal & free wall thickness, LVIDD, LVIDS (FS %), LA/Ao, LAD, ejection fraction) and electrocardiography are performed. In order to obtain an overview as complete as possible regular blood tests include a complete hematology (white blood cells (WBC), WBC differential, red blood cells, hemoglobin, hematocrit, Heinz bodies, platelet count), a biochemistry panel (total protein, Albumin, Globulin, Alkaline phosphatase (ALP), Alanine transaminase (ALT), Aspartate transaminase (AST), Total bilirubin, Creatinine, Blood urea nitrogen or urea (BUN), Calcium, Sodium, Potassium, Chloride, Phosphorus, Glucose, Cholesterol, Triglycerides, Fructosamine), the measurement of total T4, ketone bodies and cardiac biomarkers (Plasma NT-pro BNP, Cardiac troponin I, ST2).
Variables of interest are the number of events defined as cardiac death, cardiac related euthanasia and (re-) occurrence of congestive heart failure and the time to event (survival time of the cat patients).

[3] = Plasma NEFA, cholesterol and BHB in cats before and after four week treatment (FIG. 1); format: in vivo, cat; conditions: end of four week treatment period (post) vs pre, versus control
Description: A significant treatment effect, an increase in blood lipids (NEFA, cholesterol) and plasma concentrations of BHB is noted.

[4] = cat 101, treatment period Day 1 until Day 90, 1 mg/kg orally once per day
[5] = compared to placebo on top of standard of care

Q: With `N#Cc1ccc([C@@H]2O[C@H](CO)[C@@H](O)[C@H](O)[C@H]2O)cc1Cc1ccc(C2CC2)cc1` [velagliflozin, Velagliflozin] as the compound, how does the “NT-proBNP” value ([1]; Visit 2 (D 45)) read?
A: 104 pmol/L

Q: What about the “NT-proBNP” value ([1]; Visit 3 (D 90)) of the same compound?
A: 39 pmol/L

Q: And the “BPM (mmHG)” value ([1]; Visit 2 (D 45))?
A: 136 mmHG

Q: What about the “BPM (mmHG)” value ([1]; Visit 3 (D 90)) of the same compound?
A: 124 mmHG

Q: And the Grade of murmur ([1]; Visit 2 (D 45))?
A: 3

Q: And the Resting respiratory rate ([1]; Visit 2 (D 45))?
A: 34

Q: What about the Heart rate ([1]; Visit 2 (D 45)) of the same compound?
A: 180

Q: And the “Point of maximum intensity” value ([1]; Visit 2 (D 45))?
A: left apical

Q: And the Presence of arrythmia ([1]; Visit 2 (D 45))?
A: no

Q: What about the “Presence of gallop sound” value ([1]; Visit 2 (D 45)) of the same compound?
A: no

Q: And the Timing of murmur ([1]; Visit 2 (D 45))?
A: systolic

Q: What about the Presence of murmur ([1]; Visit 2 (D 45)) of the same compound?
A: yes

Q: And the Grade of murmur ([1]; Visit 3 (D 90))?
A: 2

Q: And the Resting respiratory rate ([1]; Visit 3 (D 90))?
A: 34

Q: What about the Heart rate ([1]; Visit 3 (D 90)) of the same compound?
A: 176

Q: What about the “Point of maximum intensity” value ([1]; Visit 3 (D 90)) of the same compound?
A: left apical

Q: And the Presence of arrythmia ([1]; Visit 3 (D 90))?
A: no

Q: What about the “Presence of gallop sound” value ([1]; Visit 3 (D 90)) of the same compound?
A: no

Q: What about the Timing of murmur ([1]; Visit 3 (D 90)) of the same compound?
A: systolic

Q: What about the Presence of murmur ([1]; Visit 3 (D 90)) of the same compound?
A: yes

Q: What about the “echocardiographic parameters (Table 2), cardiac biomarker (Table 3) and abnormal heart murmur over the treatment period” value ([1]; cat 101, D −7 to D 90) of the same compound?
A: improved continuously

Q: What about the “general health at study termination” value ([1]; cat 101, end of 90 day study) of the same compound?
A: good general health

Q: And the adverse event [1, 4]?
A: no adverse event

Q: What about the “re-occurrence of heart failure or pulmonary oedema” value [1, 4] of the same compound?
A: no heart failure or pulmonary oedema re-occurred

Q: And the “LA/Ao (left atrium to aorta ratio)” value ([1]; Visit 2 (D 45))?
A: 1.36

Q: What about the “LAD max (mm) (Left atrium measured as right parasternal long-axis)” value ([1]; Visit 2 (D 45)) of the same compound?
A: 13.8 mm

Q: What about the “LA/Ao (left atrium to aorta ratio)” value ([1]; Visit 3 (D 90)) of the same compound?
A: 1.07

Q: What about the “LAD max (mm) (Left atrium measured as right parasternal long-axis)” value ([1]; Visit 3 (D 90)) of the same compound?
A: 12.6 mm

Q: What about the “clinical parameters (e.g. appetite, activity level and breathing)” value ([2]; compared to placebo on top of SoC) of the same compound?
A: improve significantly

Q: What about the survival time [2, 5] of the same compound?
A: significant and clinically relevant prolongation

Q: And the “time to event (cardiac death/euthanasia and (re-)occurrence of congestive heart failure)” value [2, 5]?
A: significant and clinically relevant prolongation

Q: And the plasma cholesterol [3]?
A: increase

Q: And the “plasma concentrations of beta-hydroxybutyrat (BHB)” value [3]?
A: increase

Q: What about the “plasma non-esterified fatty acids (NEFA)” value [3] of the same compound?
A: increase
